# Assay results: PubChem BioAssay AID1918954 (Molecular Pharmacology Branch, DTP, NCI, 2023)
# Test system: MDA-MB-468 complex spheroids with HUVEC/MSC, viability
# Experiment: Anticancer human tumor MDA-MB-468 cell line growth inhibition;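 also: spheroids exposed to agents for seven days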;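 as to viability, T/C: 100% = DMSO vehicle control viability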
# Details: for IC50: curve of first compound; for viability, T/C: stronger effect = lower value
# In short: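 Complex spheroids of tumor cells with HUVEC and human MSCs, exposed to iadademstat combined with other agents. Each agent tested in half-log steps from near clinical Cmax (else 10 microM top), DMSO ≤0.25%.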
# [1] = second compound 0.1 µM, first compound 0.0316 µM
# [2] = second compound 0.1 µM, first compound 0.1 µM
# [3] = second compound 0.316 µM, first compound 0.0316 µM
# [4] = second compound 0.316 µM, first compound 0.1 µM
# [5] = second compound 1 µM, first compound 0.0316 µM
# [6] = second compound 1 µM, first compound 0.1 µM
# [7] = second compound 3.16 µM, first compound 0.0316 µM
# [8] = second compound 3.16 µM, first compound 0.1 µM
# [9] = second compound 10 µM, first compound 0.0316 µM
# [10] = second compound 10 µM, first compound 0.1 µM
# [11] = second compound 0.1 µM, first compound 0.000949 µM
# [12] = second compound 0.1 µM, first compound 0.003 µM
# [13] = second compound 0.1 µM, first compound 0.00949 µM
# [14] = second compound 0.1 µM, first compound 0.03 µM
# [15] = second compound 0.1 µM, first compound 0.0949 µM
# [16] = second compound 0.1 µM, first compound 0.3 µM
# [17] = second compound 0.316 µM, first compound 0.000949 µM
# [18] = second compound 0.316 µM, first compound 0.003 µM
# [19] = second compound 0.316 µM, first compound 0.00949 µM
# [20] = second compound 0.316 µM, first compound 0.03 µM
# [21] = second compound 0.316 µM, first compound 0.0949 µM
# [22] = second compound 0.316 µM, first compound 0.3 µM
# [23] = second compound 1 µM, first compound 0.000949 µM
# [24] = second compound 1 µM, first compound 0.003 µM
# [25] = second compound 1 µM, first compound 0.00949 µM
# [26] = second compound 1 µM, first compound 0.03 µM
# [27] = second compound 1 µM, first compound 0.0949 µM
# [28] = second compound 1 µM, first compound 0.3 µM
# [29] = second compound 3.16 µM, first compound 0.000949 µM
# [30] = second compound 3.16 µM, first compound 0.003 µM
# [31] = second compound 3.16 µM, first compound 0.00949 µM
# [32] = second compound 3.16 µM, first compound 0.03 µM
# [33] = second compound 3.16 µM, first compound 0.0949 µM
# [34] = second compound 3.16 µM, first compound 0.3 µM
# [35] = second compound 10 µM, first compound 0.000949 µM
# [36] = second compound 10 µM, first compound 0.003 µM
# [37] = second compound 10 µM, first compound 0.00949 µM
# [38] = second compound 10 µM, first compound 0.03 µM
# [39] = second compound 10 µM, first compound 0.0949 µM
# [40] = second compound 10 µM, first compound 0.3 µM
smiles,measurement,setting,value
CC[C@@]1(O)C(=O)OCc2c1cc1n(c2=O)Cc2cc3c(CN(C)C)c(O)ccc3nc2-1 + NC1CCC(NC2CC2c2ccccc2)CC1,IC50,second compound 0.1 µM,0.706 nM
same,IC50,second compound 0.316 µM,0.777 nM
same,IC50,second compound 1 µM,0.752 nM
same,IC50,second compound 3.16 µM,0.62 nM
same,IC50,second compound 10 µM,< 0.316 nM
same,"viability, T/C","second compound 0.1 µM, first compound 0.000316 µM",78%
same,"viability, T/C","second compound 0.1 µM, first compound 0.001 µM",37.9%
same,"viability, T/C","second compound 0.1 µM, first compound 0.00316 µM",13.1%
same,"viability, T/C","second compound 0.1 µM, first compound 0.01 µM",7.64%
same,"viability, T/C",[1],6.65%
same,"viability, T/C",[2],4.69%
same,"viability, T/C","second compound 0.316 µM, first compound 0.000316 µM",83.4%
same,"viability, T/C","second compound 0.316 µM, first compound 0.001 µM",40.8%
same,"viability, T/C","second compound 0.316 µM, first compound 0.00316 µM",12.7%
same,"viability, T/C","second compound 0.316 µM, first compound 0.01 µM",8.5%
same,"viability, T/C",[3],4.51%
same,"viability, T/C",[4],4.68%
same,"viability, T/C","second compound 1 µM, first compound 0.000316 µM",89.1%
same,"viability, T/C","second compound 1 µM, first compound 0.001 µM",37.3%
same,"viability, T/C","second compound 1 µM, first compound 0.00316 µM",12.6%
same,"viability, T/C","second compound 1 µM, first compound 0.01 µM",8.19%
same,"viability, T/C",[5],6.26%
same,"viability, T/C",[6],5.19%
same,"viability, T/C","second compound 3.16 µM, first compound 0.000316 µM",64.5%
same,"viability, T/C","second compound 3.16 µM, first compound 0.001 µM",40%
same,"viability, T/C","second compound 3.16 µM, first compound 0.00316 µM",15.2%
same,"viability, T/C","second compound 3.16 µM, first compound 0.01 µM",11.4%
same,"viability, T/C",[7],5.77%
same,"viability, T/C",[8],6.13%
same,"viability, T/C","second compound 10 µM, first compound 0.000316 µM",49.7%
same,"viability, T/C","second compound 10 µM, first compound 0.001 µM",40.8%
same,"viability, T/C","second compound 10 µM, first compound 0.00316 µM",14.1%
same,"viability, T/C","second compound 10 µM, first compound 0.01 µM",8.51%
same,"viability, T/C",[9],6.13%
same,"viability, T/C",[10],6.82%
CCc1c2c(nc3ccc(O)cc13)-c1cc3c(c(=O)n1C2)COC(=O)[C@]3(O)CC + NC1CCC(NC2CC2c2ccccc2)CC1,IC50,second compound 0.1 µM,< 0.949 nM
same,IC50,second compound 0.316 µM,< 0.949 nM
same,IC50,second compound 1 µM,< 0.949 nM
same,IC50,second compound 3.16 µM,< 0.949 nM
same,IC50,second compound 10 µM,< 0.949 nM
same,"viability, T/C",[11],7.86%
same,"viability, T/C",[12],7.19%
same,"viability, T/C",[13],4.23%
same,"viability, T/C",[14],3.08%
same,"viability, T/C",[15],2.21%
same,"viability, T/C",[16],2.02%
same,"viability, T/C",[17],6.84%
same,"viability, T/C",[18],5.38%
same,"viability, T/C",[19],3.66%
same,"viability, T/C",[20],3.28%
same,"viability, T/C",[21],1.33%
same,"viability, T/C",[22],2.06%
same,"viability, T/C",[23],6.78%
same,"viability, T/C",[24],6.71%
same,"viability, T/C",[25],4.78%
same,"viability, T/C",[26],2.79%
same,"viability, T/C",[27],1.75%
same,"viability, T/C",[28],2.02%
same,"viability, T/C",[29],7.33%
same,"viability, T/C",[30],4.42%
same,"viability, T/C",[31],4.73%
same,"viability, T/C",[32],3.2%
same,"viability, T/C",[33],2.84%
same,"viability, T/C",[34],1.88%
same,"viability, T/C",[35],6.82%
same,"viability, T/C",[36],5.98%
same,"viability, T/C",[37],4.27%
same,"viability, T/C",[38],3.39%
same,"viability, T/C",[39],2.46%
same,"viability, T/C",[40],2.29%
Nc1ccccc1NC(=O)c1ccc(CNC(=O)OCc2cccnc2)cc1 + NC1CCC(NC2CC2c2ccccc2)CC1,IC50,second compound 0.1 µM,170 nM
same,IC50,second compound 0.316 µM,140 nM
same,IC50,second compound 1 µM,127 nM
same,IC50,second compound 3.16 µM,143 nM
same,IC50,second compound 10 µM,111 nM
same,"viability, T/C",[13],97.4%
same,"viability, T/C",[14],106%
same,"viability, T/C",[15],87.2%
same,"viability, T/C",[16],13.9%
same,"viability, T/C","second compound 0.1 µM, first compound 0.949 µM",3.13%
same,"viability, T/C","second compound 0.1 µM, first compound 3 µM",1.48%
same,"viability, T/C",[19],102%
same,"viability, T/C",[20],103%
same,"viability, T/C",[21],67.7%
same,"viability, T/C",[22],14.6%
same,"viability, T/C","second compound 0.316 µM, first compound 0.949 µM",3.32%
same,"viability, T/C","second compound 0.316 µM, first compound 3 µM",0.9%
same,"viability, T/C",[25],89.1%
same,"viability, T/C",[26],90.3%
same,"viability, T/C",[27],61.2%
same,"viability, T/C",[28],15.9%
same,"viability, T/C","second compound 1 µM, first compound 0.949 µM",2.93%
same,"viability, T/C","second compound 1 µM, first compound 3 µM",1.42%
same,"viability, T/C",[31],80.8%
same,"viability, T/C",[32],83.7%
same,"viability, T/C",[33],69.6%
same,"viability, T/C",[34],14.9%
same,"viability, T/C","second compound 3.16 µM, first compound 0.949 µM",3.07%
same,"viability, T/C","second compound 3.16 µM, first compound 3 µM",1.04%
same,"viability, T/C",[37],59.9%
same,"viability, T/C",[38],61%
same,"viability, T/C",[39],56%
same,"viability, T/C",[40],13.4%
same,"viability, T/C","second compound 10 µM, first compound 0.949 µM",3.05%
same,"viability, T/C","second compound 10 µM, first compound 3 µM",1.52%
Nc1ccn(C2OC(CO)C(O)C2(F)F)c(=O)n1 (stereo not given) + NC1CCC(NC2CC2c2ccccc2)CC1,IC50,second compound 0.1 µM,< 0.949 nM
same,IC50,second compound 0.316 µM,< 0.949 nM
same,IC50,second compound 1 µM,< 0.949 nM
same,IC50,second compound 3.16 µM,< 0.949 nM
same,IC50,second compound 10 µM,< 0.949 nM
same,"viability, T/C",[11],5.76%
same,"viability, T/C",[12],4.85%
same,"viability, T/C",[13],5.57%
same,"viability, T/C",[14],4.54%
same,"viability, T/C",[15],4.56%
same,"viability, T/C",[16],5.13%
same,"viability, T/C",[17],5.33%
same,"viability, T/C",[18],5.22%
same,"viability, T/C",[19],5.23%
same,"viability, T/C",[20],4.88%
same,"viability, T/C",[21],5.47%
same,"viability, T/C",[22],5.64%
same,"viability, T/C",[23],6.43%
same,"viability, T/C",[24],6.38%
same,"viability, T/C",[25],5.41%
same,"viability, T/C",[26],4.34%
same,"viability, T/C",[27],4.71%
same,"viability, T/C",[28],5.55%
same,"viability, T/C",[29],6.65%
same,"viability, T/C",[30],5.98%
same,"viability, T/C",[31],5.78%
same,"viability, T/C",[32],5.89%
same,"viability, T/C",[33],4.69%
same,"viability, T/C",[34],5.66%
same,"viability, T/C",[35],7.63%
same,"viability, T/C",[36],6.29%
same,"viability, T/C",[37],6.52%
same,"viability, T/C",[38],7.12%
same,"viability, T/C",[39],5.35%
same,"viability, T/C",[40],5.45%
O=C(c1cc(Cc2n[nH]c(=O)c3ccccc23)ccc1F)N1CCN(C(=O)C2CC2)CC1 + NC1CCC(NC2CC2c2ccccc2)CC1,IC50,second compound 0.1 µM,775 nM
same,IC50,second compound 0.316 µM,812 nM
same,IC50,second compound 1 µM,786 nM
same,IC50,second compound 3.16 µM,909 nM
same,IC50,second compound 10 µM,411 nM
same,"viability, T/C",[1],89.5%
same,"viability, T/C",[2],103%
same,"viability, T/C","second compound 0.1 µM, first compound 0.316 µM",76.2%
same,"viability, T/C","second compound 0.1 µM, first compound 1 µM",42.6%
same,"viability, T/C","second compound 0.1 µM, first compound 3.16 µM",19.3%
same,"viability, T/C","second compound 0.1 µM, first compound 10 µM",13.6%
same,"viability, T/C",[3],93.8%
same,"viability, T/C",[4],87.8%
same,"viability, T/C","second compound 0.316 µM, first compound 0.316 µM",71.4%
same,"viability, T/C","second compound 0.316 µM, first compound 1 µM",47.7%
same,"viability, T/C","second compound 0.316 µM, first compound 3.16 µM",18.2%
same,"viability, T/C","second compound 0.316 µM, first compound 10 µM",13.8%
same,"viability, T/C",[5],90.2%
same,"viability, T/C",[6],80.8%
same,"viability, T/C","second compound 1 µM, first compound 0.316 µM",71.7%
same,"viability, T/C","second compound 1 µM, first compound 1 µM",45.2%
same,"viability, T/C","second compound 1 µM, first compound 3.16 µM",21%
same,"viability, T/C","second compound 1 µM, first compound 10 µM",15.1%
same,"viability, T/C",[7],68.4%
same,"viability, T/C",[8],75.3%
same,"viability, T/C","second compound 3.16 µM, first compound 0.316 µM",77%
same,"viability, T/C","second compound 3.16 µM, first compound 1 µM",47.9%
same,"viability, T/C","second compound 3.16 µM, first compound 3.16 µM",20.8%
same,"viability, T/C","second compound 3.16 µM, first compound 10 µM",17%
same,"viability, T/C",[9],73.9%
same,"viability, T/C",[10],65.8%
same,"viability, T/C","second compound 10 µM, first compound 0.316 µM",53.4%
same,"viability, T/C","second compound 10 µM, first compound 1 µM",38.9%
same,"viability, T/C","second compound 10 µM, first compound 3.16 µM",23.6%
same,"viability, T/C","second compound 10 µM, first compound 10 µM",18.6%
